Experimental data reported in the kinase profiling compilation of Christmann-Franck et al. (2016).

Tests used:
Assay in all cases: radiometric filter-binding kinase assay
[1] = system: AKT1 (human), P31749 [S473D]; details: ATP 5 µM
[2] = target: BRSK2 (human) (UniProt Q8IWQ3); details: ATP 50 µM
[3] = target: BTK (human) (UniProt Q06187); details: ATP 50 µM
[4] = target: CDK2 CCNA2 (human) (UniProt P20248+P24941); details: ATP 20 µM
[5] = target: CSK (human) (UniProt P41240); details: ATP 20 µM
[6] = target: CSNK1D (human) (UniProt P48730); details: ATP 20 µM
[7] = target: CSNK2A1 (human) (UniProt P68400); details: ATP 5 µM
Sequence of CSNK2A1 (human) (P68400 whole entry, looked up): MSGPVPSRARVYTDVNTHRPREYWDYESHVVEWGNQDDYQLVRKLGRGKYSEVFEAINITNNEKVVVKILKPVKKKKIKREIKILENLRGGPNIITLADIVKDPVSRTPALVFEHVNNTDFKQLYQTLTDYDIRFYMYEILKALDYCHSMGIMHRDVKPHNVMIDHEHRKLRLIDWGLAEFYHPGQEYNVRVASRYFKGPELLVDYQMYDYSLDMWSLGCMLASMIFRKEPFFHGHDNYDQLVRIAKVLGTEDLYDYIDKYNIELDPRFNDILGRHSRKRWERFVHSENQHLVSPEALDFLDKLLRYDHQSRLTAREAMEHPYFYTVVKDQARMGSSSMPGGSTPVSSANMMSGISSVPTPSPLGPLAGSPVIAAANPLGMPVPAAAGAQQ

[8] = target: EPHB3 (human) (UniProt P54753); details: ATP 20 µM
Sequence of EPHB3 (human) (P54753 whole entry, looked up): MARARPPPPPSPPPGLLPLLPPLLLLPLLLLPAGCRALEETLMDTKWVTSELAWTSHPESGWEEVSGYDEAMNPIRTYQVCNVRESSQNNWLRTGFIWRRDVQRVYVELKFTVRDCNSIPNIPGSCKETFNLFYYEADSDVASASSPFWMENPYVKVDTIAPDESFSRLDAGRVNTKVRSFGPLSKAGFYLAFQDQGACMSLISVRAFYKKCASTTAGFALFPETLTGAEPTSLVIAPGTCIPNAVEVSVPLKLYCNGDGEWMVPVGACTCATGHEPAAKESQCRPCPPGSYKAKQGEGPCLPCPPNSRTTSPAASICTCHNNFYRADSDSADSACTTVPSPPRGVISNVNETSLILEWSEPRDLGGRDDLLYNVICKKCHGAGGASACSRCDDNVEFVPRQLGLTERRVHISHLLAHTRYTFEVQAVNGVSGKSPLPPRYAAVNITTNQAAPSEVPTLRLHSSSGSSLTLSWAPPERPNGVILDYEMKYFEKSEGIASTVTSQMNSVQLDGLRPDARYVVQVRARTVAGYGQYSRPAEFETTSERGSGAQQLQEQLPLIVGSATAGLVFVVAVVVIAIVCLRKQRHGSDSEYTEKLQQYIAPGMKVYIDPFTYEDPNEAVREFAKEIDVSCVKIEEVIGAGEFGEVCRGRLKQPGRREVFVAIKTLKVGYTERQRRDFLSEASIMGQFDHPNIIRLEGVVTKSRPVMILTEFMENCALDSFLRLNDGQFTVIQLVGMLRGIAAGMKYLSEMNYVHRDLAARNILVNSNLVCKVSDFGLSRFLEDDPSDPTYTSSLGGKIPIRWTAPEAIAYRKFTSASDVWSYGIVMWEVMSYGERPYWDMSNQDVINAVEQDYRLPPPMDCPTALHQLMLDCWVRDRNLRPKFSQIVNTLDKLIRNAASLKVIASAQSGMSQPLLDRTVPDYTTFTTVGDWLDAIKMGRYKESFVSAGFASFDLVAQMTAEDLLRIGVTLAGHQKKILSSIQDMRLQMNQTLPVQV

[9] = target: GSK3B (human) (UniProt P49841); details: ATP 5 µM
Sequence of GSK3B (human) (P49841 whole entry, looked up): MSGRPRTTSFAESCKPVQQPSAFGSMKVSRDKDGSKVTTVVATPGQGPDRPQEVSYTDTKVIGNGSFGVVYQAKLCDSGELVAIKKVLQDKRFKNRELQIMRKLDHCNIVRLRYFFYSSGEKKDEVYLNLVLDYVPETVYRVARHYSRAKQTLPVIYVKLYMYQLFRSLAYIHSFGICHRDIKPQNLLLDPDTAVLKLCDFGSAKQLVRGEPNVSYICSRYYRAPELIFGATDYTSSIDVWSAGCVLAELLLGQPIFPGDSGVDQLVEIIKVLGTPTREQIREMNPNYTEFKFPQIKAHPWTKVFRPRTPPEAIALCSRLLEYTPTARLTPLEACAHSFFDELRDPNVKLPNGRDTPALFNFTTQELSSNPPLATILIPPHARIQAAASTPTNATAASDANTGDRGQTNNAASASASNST

[10] = target: HIPK2 (human) (UniProt Q9H2X6); details: ATP 5 µM
[11] = target: INSR (human) (UniProt P06213); details: ATP 20 µM
[12] = target: MAPK11 (human) (UniProt Q15759); details: ATP 20 µM
Sequence of MAPK11 (human) (Q15759 whole entry, looked up): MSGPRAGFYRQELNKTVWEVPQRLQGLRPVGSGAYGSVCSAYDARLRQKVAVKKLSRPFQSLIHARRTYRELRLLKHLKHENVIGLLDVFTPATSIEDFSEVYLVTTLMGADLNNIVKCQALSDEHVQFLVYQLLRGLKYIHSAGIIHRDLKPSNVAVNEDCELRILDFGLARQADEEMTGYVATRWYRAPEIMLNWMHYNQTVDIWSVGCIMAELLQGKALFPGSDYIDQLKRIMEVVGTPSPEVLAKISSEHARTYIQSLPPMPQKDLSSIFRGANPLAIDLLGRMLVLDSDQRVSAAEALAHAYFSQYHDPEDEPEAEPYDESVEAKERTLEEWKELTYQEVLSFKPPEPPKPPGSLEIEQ

[13] = target: MAPK15 (human) (UniProt Q8TD08); details: ATP 5 µM
[14] = target: MAPK3 (human) (UniProt P27361); details: ATP 5 µM
Sequence of MAPK3 (human) (P27361 whole entry, looked up): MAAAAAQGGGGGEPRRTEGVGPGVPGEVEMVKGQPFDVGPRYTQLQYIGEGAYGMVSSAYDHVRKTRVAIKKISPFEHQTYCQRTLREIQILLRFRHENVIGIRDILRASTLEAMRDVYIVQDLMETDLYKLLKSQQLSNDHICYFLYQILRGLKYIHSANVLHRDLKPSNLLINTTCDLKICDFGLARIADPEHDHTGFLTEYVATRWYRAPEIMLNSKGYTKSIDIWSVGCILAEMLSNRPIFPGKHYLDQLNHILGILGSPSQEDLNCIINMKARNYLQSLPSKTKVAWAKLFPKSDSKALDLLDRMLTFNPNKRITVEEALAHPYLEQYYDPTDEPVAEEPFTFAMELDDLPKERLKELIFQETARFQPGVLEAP

[15] = target: MAPK8 (human) (UniProt P45983); details: ATP 20 µM
Sequence of MAPK8 (human) (P45983 whole entry, looked up): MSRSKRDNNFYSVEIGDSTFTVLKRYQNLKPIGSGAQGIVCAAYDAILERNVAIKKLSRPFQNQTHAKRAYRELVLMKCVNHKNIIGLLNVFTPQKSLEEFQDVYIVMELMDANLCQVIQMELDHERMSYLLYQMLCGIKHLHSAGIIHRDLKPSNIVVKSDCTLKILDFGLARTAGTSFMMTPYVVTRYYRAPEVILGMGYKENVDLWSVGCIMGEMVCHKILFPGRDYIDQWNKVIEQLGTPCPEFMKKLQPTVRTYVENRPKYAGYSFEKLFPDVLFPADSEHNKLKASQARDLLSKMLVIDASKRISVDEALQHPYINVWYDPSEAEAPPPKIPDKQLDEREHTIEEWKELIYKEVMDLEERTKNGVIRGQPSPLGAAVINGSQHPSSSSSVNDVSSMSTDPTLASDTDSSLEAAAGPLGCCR

[16] = target: MAPK9 (human) (UniProt P45984); details: ATP 20 µM
Sequence of MAPK9 (human) (P45984 whole entry, looked up): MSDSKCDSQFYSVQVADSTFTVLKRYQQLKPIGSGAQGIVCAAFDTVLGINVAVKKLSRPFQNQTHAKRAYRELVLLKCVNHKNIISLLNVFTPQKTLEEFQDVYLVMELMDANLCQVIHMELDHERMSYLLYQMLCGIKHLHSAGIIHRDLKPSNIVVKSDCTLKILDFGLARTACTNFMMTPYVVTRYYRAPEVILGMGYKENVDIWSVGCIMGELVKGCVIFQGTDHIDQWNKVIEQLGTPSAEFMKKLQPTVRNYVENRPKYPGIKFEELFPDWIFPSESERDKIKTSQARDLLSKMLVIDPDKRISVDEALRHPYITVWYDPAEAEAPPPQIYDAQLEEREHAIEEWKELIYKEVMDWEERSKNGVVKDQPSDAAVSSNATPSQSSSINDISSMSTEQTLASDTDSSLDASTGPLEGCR

[17] = target: MAPKAPK5 (human) (UniProt Q8IW41); details: ATP 20 µM
[18] = target: MARK3 (human) (UniProt P27448); details: ATP 5 µM
[19] = target: MYLK (human) (UniProt Q15746); details: ATP 50 µM
[20] = target: PAK4 (human) (UniProt O96013); details: ATP 5 µM
Sequence of PAK4 (human) (O96013 whole entry, looked up): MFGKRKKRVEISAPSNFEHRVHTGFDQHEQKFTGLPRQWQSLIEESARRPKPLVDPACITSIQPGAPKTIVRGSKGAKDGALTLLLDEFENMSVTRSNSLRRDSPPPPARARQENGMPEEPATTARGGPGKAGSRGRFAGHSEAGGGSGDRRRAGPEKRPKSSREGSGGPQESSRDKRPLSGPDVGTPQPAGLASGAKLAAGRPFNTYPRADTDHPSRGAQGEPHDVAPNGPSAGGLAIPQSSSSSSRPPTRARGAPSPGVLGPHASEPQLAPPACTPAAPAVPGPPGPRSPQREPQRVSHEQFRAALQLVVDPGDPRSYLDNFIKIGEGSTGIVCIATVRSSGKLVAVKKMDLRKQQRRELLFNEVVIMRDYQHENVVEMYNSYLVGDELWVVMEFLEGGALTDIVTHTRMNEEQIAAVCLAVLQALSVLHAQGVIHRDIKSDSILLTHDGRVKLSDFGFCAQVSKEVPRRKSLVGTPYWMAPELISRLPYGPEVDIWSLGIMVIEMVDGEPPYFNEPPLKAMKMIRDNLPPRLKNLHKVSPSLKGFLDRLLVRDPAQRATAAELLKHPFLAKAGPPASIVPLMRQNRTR

[21] = target: PAK7 (human) (UniProt Q9P286); details: ATP 20 µM
[22] = target: PI4KA (human) (UniProt P42356)
[23] = target: PIM1 (human) (UniProt P11309); details: ATP 20 µM
[24] = target: PKN2 (human) (UniProt Q16513); details: ATP 5 µM
[25] = target: PLK1 (human) (UniProt P53350); details: ATP 5 µM
[26] = target: RPS6KA3 KD1 KD2 (human) (UniProt P51812); details: ATP 100 µM
[27] = target: RPS6KA5 KD1 KD2 (human) (UniProt O75582); details: ATP 100 µM
Sequence of RPS6KA5 KD1 KD2 (human) (O75582 whole entry, looked up): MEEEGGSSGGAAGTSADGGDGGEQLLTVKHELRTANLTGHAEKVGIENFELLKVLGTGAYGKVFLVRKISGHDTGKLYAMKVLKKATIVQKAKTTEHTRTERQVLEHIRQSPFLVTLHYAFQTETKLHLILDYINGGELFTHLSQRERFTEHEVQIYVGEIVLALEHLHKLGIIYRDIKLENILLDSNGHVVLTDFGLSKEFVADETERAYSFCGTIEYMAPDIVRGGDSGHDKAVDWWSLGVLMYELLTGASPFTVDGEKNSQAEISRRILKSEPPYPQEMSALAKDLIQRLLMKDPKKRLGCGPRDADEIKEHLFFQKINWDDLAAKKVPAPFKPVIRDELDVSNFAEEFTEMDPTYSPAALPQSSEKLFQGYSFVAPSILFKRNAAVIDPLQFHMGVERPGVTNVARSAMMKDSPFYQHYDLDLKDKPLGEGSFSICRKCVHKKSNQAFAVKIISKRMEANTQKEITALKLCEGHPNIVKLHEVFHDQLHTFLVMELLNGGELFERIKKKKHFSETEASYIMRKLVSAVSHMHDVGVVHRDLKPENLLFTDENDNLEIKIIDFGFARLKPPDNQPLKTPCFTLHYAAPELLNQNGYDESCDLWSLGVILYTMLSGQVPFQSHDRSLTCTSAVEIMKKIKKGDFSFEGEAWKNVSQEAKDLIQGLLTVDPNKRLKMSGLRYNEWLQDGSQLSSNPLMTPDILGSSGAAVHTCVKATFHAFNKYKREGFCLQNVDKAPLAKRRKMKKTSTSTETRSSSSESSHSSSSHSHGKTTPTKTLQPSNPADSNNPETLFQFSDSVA

[28] = target: RPS6KB2 (human) (UniProt Q9UBS0); details: ATP 100 µM
[29] = target: SRC (human) (UniProt P12931); details: ATP 50 µM

CCc1cncnc1N1CCN(Cc2nc3cc(C(F)(F)F)ccc3[nH]2)CC1
residual activity ([1]; compound 0.1 µM): 87% | residual activity ([1]; compound 1.0 µM): 69% | residual activity ([1]; compound 10.0 µM): 52% | residual activity ([2]; compound 0.1 µM): 88% | residual activity ([2]; compound 1.0 µM): 84% | residual activity ([2]; compound 10.0 µM): 83% | residual activity ([3]; compound 0.1 µM): 83% | residual activity ([3]; compound 1.0 µM): 87% | residual activity ([3]; compound 10.0 µM): 92% | residual activity ([4]; compound 0.1 µM): 102% | residual activity ([4]; compound 1.0 µM): 101% | residual activity ([4]; compound 10.0 µM): 88% | residual activity ([5]; compound 0.1 µM): 94% | residual activity ([5]; compound 1.0 µM): 93% | residual activity ([5]; compound 10.0 µM): 98% | residual activity ([6]; compound 0.1 µM): 96% | residual activity ([6]; compound 1.0 µM): 93% | residual activity ([6]; compound 10.0 µM): 71% | residual activity ([7]; compound 0.1 µM): 96% | residual activity ([7]; compound 1.0 µM): 92% | residual activity ([7]; compound 10.0 µM): 83% | residual activity ([8]; compound 0.1 µM): 132% | residual activity ([8]; compound 1.0 µM): 139% | residual activity ([8]; compound 10.0 µM): 101% | residual activity ([9]; compound 0.1 µM): 87% | residual activity ([9]; compound 1.0 µM): 96% | residual activity ([9]; compound 10.0 µM): 92% | residual activity ([10]; compound 0.1 µM): 108% | residual activity ([10]; compound 1.0 µM): 86% | residual activity ([10]; compound 10.0 µM): 88% | residual activity ([11]; compound 0.1 µM): 108% | residual activity ([11]; compound 1.0 µM): 95% | residual activity ([11]; compound 10.0 µM): 96% | residual activity ([12]; compound 0.1 µM): 88% | residual activity ([12]; compound 1.0 µM): 89% | residual activity ([12]; compound 10.0 µM): 97% | residual activity ([13]; compound 0.1 µM): 85% | residual activity ([13]; compound 1.0 µM): 83% | residual activity ([13]; compound 10.0 µM): 71% | residual activity ([14]; compound 0.1 µM): 93% | residual activity ([14]; compound 1.0 µM): 85% | residual activity ([14]; compound 10.0 µM): 83% | residual activity ([15]; compound 0.1 µM): 111% | residual activity ([15]; compound 1.0 µM): 107% | residual activity ([15]; compound 10.0 µM): 95% | residual activity ([16]; compound 0.1 µM): 92% | residual activity ([16]; compound 1.0 µM): 93% | residual activity ([16]; compound 10.0 µM): 98% | residual activity ([17]; compound 0.1 µM): 114% | residual activity ([17]; compound 1.0 µM): 97% | residual activity ([17]; compound 10.0 µM): 87% | residual activity ([18]; compound 0.1 µM): 94% | residual activity ([18]; compound 1.0 µM): 83% | residual activity ([18]; compound 10.0 µM): 82% | residual activity ([19]; compound 0.1 µM): 95% | residual activity ([19]; compound 1.0 µM): 79% | residual activity ([19]; compound 10.0 µM): 87% | residual activity ([20]; compound 0.1 µM): 93% | residual activity ([20]; compound 1.0 µM): 88% | residual activity ([20]; compound 10.0 µM): 88% | residual activity ([21]; compound 0.1 µM): 100% | residual activity ([21]; compound 1.0 µM): 88% | residual activity ([21]; compound 10.0 µM): 87% | residual activity ([22]; compound 1.0 µM): 106% | residual activity ([22]; compound 10.0 µM): 102% | residual activity ([23]; compound 0.1 µM): 88% | residual activity ([23]; compound 1.0 µM): 90% | residual activity ([23]; compound 10.0 µM): 78% | residual activity ([24]; compound 0.1 µM): 95% | residual activity ([24]; compound 1.0 µM): 86% | residual activity ([24]; compound 10.0 µM): 84% | residual activity ([25]; compound 0.1 µM): 98% | residual activity ([25]; compound 1.0 µM): 87% | residual activity ([25]; compound 10.0 µM): 88% | IC50 [26]: 9.2 µM | residual activity ([26]; compound 0.1 µM): 100% | residual activity ([26]; compound 1.0 µM): 86% | residual activity ([26]; compound 10.0 µM): 45% | IC50 [27]: 0.95 µM | residual activity ([27]; compound 0.1 µM): 80% | residual activity ([27]; compound 1.0 µM): 42% | residual activity ([27]; compound 10.0 µM): 14% | IC50 [28]: 65 µM | residual activity ([29]; compound 0.1 µM): 103% | residual activity ([29]; compound 1.0 µM): 99% | residual activity ([29]; compound 10.0 µM): 92%
